Key:
Type in all cases: cell-based
Gal-4 hPPARα = target: T1, Gal-4 hPPARα (Homo sapiens, UniProt Q07869); test: Gal4-hPPARα transient transfection reporter assay in Cos cells; conditions: luciferase reporter, 24 hours with compound, scale 1-5, read-out: Gal-4 hPPAR α EC50 (scaled number)
T1 construct: Plasmids pGal4-hPPARα, pGal4-hPPARγ, pGal4-hPPARδ and pG5-TK-pGL3 were constructed as previously described by Staels, Bart, et al., Nature 1998 Jun; 25
T1 sequence (Q07869 200-468 limits assumed): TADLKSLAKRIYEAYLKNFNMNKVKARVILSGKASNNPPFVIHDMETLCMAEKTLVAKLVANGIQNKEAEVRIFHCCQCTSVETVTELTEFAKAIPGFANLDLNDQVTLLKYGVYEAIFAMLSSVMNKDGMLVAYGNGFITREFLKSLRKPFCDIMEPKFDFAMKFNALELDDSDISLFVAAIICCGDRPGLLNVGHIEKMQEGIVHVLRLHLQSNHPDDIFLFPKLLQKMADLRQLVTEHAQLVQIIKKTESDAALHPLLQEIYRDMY
Procedure: (§1) Construction of recombinant plasmids. Plasmids pGal4-hPPARα, pGal4-hPPARγ, pGal4-hPPARδ and pG5-TK-pGL3 were constructed as previously described by Staels, Bart, et al., Nature 1998 Jun. 25; 393 (6687): 790-793, by Staels (Institut Pasteur de Lille, FR).
(§2) Transient transfection assays. Cos cells were seeded in 60-mm dishes at a density of 5.5×10^5 cells/dish in Dulbecco's modified Eagle's medium (DMEM) supplemented with 10% fetal calf serum (FCS) and incubated at 37° C. for 24 hours before transfection. Cells were transfected in Opti-MEM (Gibco; Invitrogen, Carlsbad, Calif.) without FCS for 3 hours at 37° C., using polyethylenimine, with reporter and expression plasmids. The plasmid pBluescript (Stratagene, La Jolla, Calif.) was used as carrier DNA to set the final amount of DNA to 5.5 μg/dish. The pCMV-b-galactosidase expression plasmid was cotransfected as a control for transfection efficiency. Transfection was stopped by the addition of DMEM supplemented with 10% FCS, and cells were then incubated at 37° C. After 16 hours, cells were trypsinized and seeded in 96-well plates at the density of 2×10^4 cells/well and incubated for 6 hours in 10% FCS-containing DMEM. Cells were then incubated for 24 hours in DMEM containing 0.2% FCS and increasing concentrations of the compound tested or vehicle (DMSO). At the end of the experiment, cells were washed once with ice-cold PBS, lysed and the luciferase and b-galactosidase assays were performed in a luminometer and spectrophotomer. Transfection efficiencies were normalized with the b-galactosidase activity assay. Half-maximal effective concentration (EC50) was estimated using Prism software (GraphPad). All transfection experiments were performed at least three times.
(§3) In the following tables, proprietary compound EC50 values for hPPAR α, β, δ and γ are shown. The EC50 value is the concentration of a drug that induces a response halfway between the baseline and maximum, and is commonly used as a measure of drug potency. EC50 values are reported on a scale of 1 through 5, wherein the value scale is defined for each receptor as follows: […]

Gal-4 hPPARβ/δ = target: T2, Gal-4 hPPARβ/δ (Homo sapiens, UniProt Q03181); test: Gal4-hPPARδ transient transfection reporter assay in Cos cells; conditions: luciferase reporter, 24 hours with compound, scale 1-5, read-out: Gal-4 hPPAR β/δ EC50 (scaled number)
T2 construct: Plasmids pGal4-hPPARα, pGal4-hPPARγ, pGal4-hPPARδ and pG5-TK-pGL3 were constructed as previously described by Staels, Bart, et al., Nature 1998 Jun; 25
T2 sequence (Q03181 171-441 limits assumed): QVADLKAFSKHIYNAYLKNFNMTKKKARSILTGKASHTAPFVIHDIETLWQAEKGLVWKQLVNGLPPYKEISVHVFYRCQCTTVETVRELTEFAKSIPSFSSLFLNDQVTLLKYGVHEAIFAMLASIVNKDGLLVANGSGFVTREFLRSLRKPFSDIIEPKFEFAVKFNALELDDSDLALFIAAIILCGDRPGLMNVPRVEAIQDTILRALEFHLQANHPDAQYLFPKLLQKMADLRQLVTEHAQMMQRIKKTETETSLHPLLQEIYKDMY
Procedure: as §1, §2, §3

Gal-4 hPPARγ = target: T3, Gal-4 hPPARγ (Homo sapiens, UniProt P37231); test: Gal4-hPPARγ transient transfection reporter assay in Cos cells; conditions: luciferase reporter, 24 hours with compound, scale 1-5, read-out: Gal-4 hPPAR γ EC50 (scaled number)
T3 construct: Plasmids pGal4-hPPARα, pGal4-hPPARγ, pGal4-hPPARδ and pG5-TK-pGL3 were constructed as previously described by Staels, Bart, et al., Nature 1998 Jun; 25
T3 sequence (P37231 238-505 limits assumed): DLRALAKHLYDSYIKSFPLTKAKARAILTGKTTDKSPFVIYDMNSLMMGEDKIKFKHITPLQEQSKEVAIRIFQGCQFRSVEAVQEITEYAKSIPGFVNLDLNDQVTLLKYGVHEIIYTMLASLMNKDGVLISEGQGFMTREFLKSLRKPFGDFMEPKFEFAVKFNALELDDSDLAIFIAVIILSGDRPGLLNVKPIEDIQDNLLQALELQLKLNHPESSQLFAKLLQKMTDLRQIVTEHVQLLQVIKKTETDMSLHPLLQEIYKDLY
Procedure: as §1, §2, §3

Row | EC50 (Gal-4 hPPARα) [nM] | EC50 (Gal-4 hPPARβ/δ) [nM] | EC50 (Gal-4 hPPARγ) [nM] | SMILES
1 | 51 to 200 | > 1000 | > 1000 | CCn1c(COC(=O)c2ccc(SC(C)(C)C(=O)O)cc2)nn(Cc2ccc(C)cc2)c1=O [Compound 193, 2-(4-(((4-ethyl-1-(4-methylbenzyl)-5-oxo-4,5-dihydro-1H-1,2,4-triazol-3-yl)methoxy)carbonyl)phenylthio)-2-methylpropanoic acid]
2 | 1 to 50 | > 1000 | > 1000 | CCn1c(COC(=O)c2ccc(SC(C)(C)C(=O)O)cc2)nn(Cc2ccc(C(C)(C)C)cc2)c1=O [Compound 195, 2-(4-(((1-(4-tert-butylbenzyl)-4-ethyl-5-oxo-4,5-dihydro-1H-1,2,4-triazol-3-yl)methoxy)carbonyl)phenylthio)-2-methylpropanoic acid]
3 | 51 to 200 | > 1000 | > 1000 | CCn1c(COC(=O)c2ccc(OC(C)(C)C(=O)O)cc2)nn(Cc2ccc(C(C)(C)C)cc2)c1=O [Compound 196, 2-(4-(((1-(4-tert-butylbenzyl)-4-ethyl-5-oxo-4,5-dihydro-1H-1,2,4-triazol-3-yl)methoxy)carbonyl)phenoxy)-2-methylpropanoic acid]
4 | 1 to 50 | > 1000 | > 1000 | CCn1c(COC(=O)c2ccc(SC(C)(C)C(=O)O)cc2)nn(Cc2ccc(C(F)(F)F)cc2)c1=O [Compound 197, 2-(4-(((4-ethyl-5-oxo-1-(4-(trifluoromethyl)benzyl)-4,5-dihydro-1H-1,2,4-triazol-3-yl)methoxy)carbonyl)phenylthio)-2-methylpropanoic acid]
5 | 1 to 50 | > 1000 | > 1000 | CCCCCCn1c(COC(=O)c2ccc(SC(C)(C)C(=O)O)cc2)nn(Cc2ccc(C(OC)(C(F)(F)F)C(F)(F)F)cc2)c1=O [Compound 201, 2-(4-(((1-(4-(1,1,1,3,3,3-hexafluoro-2-methoxypropan-2-yl)benzyl)-4-hexyl-5-oxo-4,5-dihydro-1H-1,2,4-triazol-3-yl)methoxy)carbonyl)phenylthio)-2-methylpropanoic acid]
6 | 1 to 50 | > 1000 | > 1000 | CCCCCCn1c(COC(=O)c2ccc(OC(C)(C)C(=O)O)cc2)nn(Cc2ccc(C(OC)(C(F)(F)F)C(F)(F)F)cc2)c1=O [Compound 202, 2-(4-(((1-(4-(1,1,1,3,3,3-hexafluoro-2-methoxypropan-2-yl)benzyl)-4-hexyl-5-oxo-4,5-dihydro-1H-1,2,4-triazol-3-yl)methoxy)carbonyl)phenoxy)-2-methylpropanoic acid]
7 | 1 to 50 | > 1000 | > 1000 | CCCCCCn1c(COC(=O)c2ccc(SC(C)(C)C(=O)O)cc2)nn(Cc2ccc(C(F)(C(F)(F)F)C(F)(F)F)cc2)c1=O [Compound 203, 2-(4-(((4-hexyl-5-oxo-1-(4-(perfluoropropan-2-yl)benzyl)-4,5-dihydro-1H-1,2,4-triazol-3-yl)methoxy)carbonyl)phenylthio)-2-methylpropanoic acid]
8 | 51 to 200 | > 1000 | > 1000 | CCCCCCn1c(COC(=O)c2ccc(OC(C)(C)C(=O)O)cc2)nn(Cc2ccc(C(F)(C(F)(F)F)C(F)(F)F)cc2)c1=O [Compound 204, 2-(4-(((4-hexyl-5-oxo-1-(4-(perfluoropropan-2-yl)benzyl)-4,5-dihydro-1H-1,2,4-triazol-3-yl)methoxy)carbonyl)phenoxy)-2-methylpropanoic acid]
9 | 201 to 999 | > 1000 | > 1000 | CCCn1c(COC(=O)c2ccc(OC(C)(C)C(=O)O)cc2)nn(Cc2cc(C(F)(F)F)cc(C(F)(F)F)c2)c1=O [Compound 206, 2-(4-(((1-(3,5-bis(trifluoromethyl)benzyl)-5-oxo-4-propyl-4,5-dihydro-1H-1,2,4-triazol-3-yl)methoxy)carbonyl)phenoxy)-2-methylpropanoic acid]
10 | 201 to 999 | > 1000 | > 1000 | CCCn1c(COC(=O)c2ccc(OC(C)(C)C(=O)O)cc2)nn(Cc2ccc(SC(F)(F)F)cc2)c1=O [Compound 210, 2-methyl-2-(4-(((5-oxo-4-propyl-1-(4-(trifluoromethylthio)benzyl)-4,5-dihydro-1H-1,2,4-triazol-3-yl)methoxy)carbonyl)phenoxy)propanoic acid]
11 | 51 to 200 | > 1000 | > 1000 | CCCn1c(COC(=O)c2ccc(SC(C)(C)C(=O)O)cc2)nn(Cc2cc(F)cc(F)c2)c1=O [Compound 218, 2-(4-(((1-(3,5-difluorobenzyl)-5-oxo-4-propyl-4,5-dihydro-1H-1,2,4-triazol-3-yl)methoxy)carbonyl)phenylthio)-2-methylpropanoic acid]
12 | 51 to 200 | > 1000 | > 1000 | Cc1ccc(Cn2nc(COC(=O)c3ccc(SC(C)(C)C(=O)O)cc3)[nH]c2=O)cc1 [Compound 261, 4-(1-Carboxy-1-methyl-ethylsulfanyl)-benzoic acid 1-(4-methyl-benzyl)-5-oxo-4,5-dihydro-1H-1,2,4-triazol-3-ylmethyl ester]
13 | < 1 | > 1000 | 51 to 200 | CCCCCCCn1c(C(C)OC(=O)c2ccc(SC(C)(C)C(=O)O)cc2)nn(Cc2ccc(C)cc2)c1=O (stereo not drawn) [Compound 264, 4-(1-Carboxy-1-methyl-ethylsulfanyl)-benzoic acid 1-[4-heptyl-1-(4-methyl-benzyl)-5-oxo-4,5-dihydro-1H-1,2,4-triazol-3-yl]-ethyl ester]
14 | 201 to 999 | > 1000 | > 1000 | CCCn1c(COC(=O)c2ccc(OC(C)(C)C(=O)O)c(C)c2)nn(Cc2ccc(C(C)(C)C)cc2)c1=O [Compound 266, 4-(1-Carboxy-1-methyl-ethoxy)-3-methyl-benzoic acid 1-(4-tert-butyl-benzyl)-5-oxo-4-propyl-4,5-dihydro-1H-1,2,4-triazol-3-ylmethyl ester]

Source: patent US20100184815A1 (priority 2008, published 2010)
